The values below come from PubChem BioAssay (NCI).

SMILES strings stand for the structures.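 Five concentrations, 48 hours, 96-well plates. GI50 is the concentration that inhibits growth by half. At the TGI there is no net growth.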

What all share (test): NCI tumour cell line growth inhibition, 48 h
Test [1] deals with SW-620 colon.
Test [2] has as its system UO-31 renal.
The test system of test [3] is M14 melanoma.
Test [4] deals with RXF 393 renal.
Test [5] relates to KM12 colon.
Test [6] relates to LOX IMVI melanoma.
Test [7] has as its system HOP-92 NSCLC.
Test [8] deals with K-562 leukemia.
Test [9] relates to CAKI-1 renal.
Test [10] deals with SR leukemia.

In the case of `N=C(N)c1ccc(CS(=O)(=O)F)cc1`, the GI50 in test [1] was more than 100 µM; in test [2], more than 100 µM; in [3] it was more than 100 µM; in [4] it was more than 100 µM; in test [5] it was more than 100 µM; in test [6], 81.2 µM. Further, the GI50 in [7], in test [8] and in test [9] was more than 100 µM in each case. In addition, the TGI in test [1], in [2], in [3], in test [4], in [5] and in test [6] was more than 100 µM throughout. Further, the TGI in [7], in test [8] and in [9] was more than 100 µM each time.

As for `CCOC(=O)NC(=O)c1cn(CC(=O)NCC(=O)NCC(=O)N2CCN(CCn3c(C)nc(C(N)=O)c3N)CC2)c(=O)[nH]c1=O`, the TGI in test [1], in [2], in [3], in test [10], in test [5] and in test [6] was more than 100 µM each time. The TGI in test [7], in test [8] and in [9] was more than 100 µM each time.

In the case of `Cc1cc(NCCCNc2ccnc3cc(Cl)ccc23)nc(Nc2ccc(C(=O)N3CCCCC3)cc2)n1`, the GI50 is 2.12 µM in [1]; 2.16 µM in [2]; 2.12 µM in [3]; 1.8 µM in test [4]; 1.72 µM in test [10]; 2.96 µM in [5]. Further, the results for the GI50 in [6], in test [8] and in [9] were 1.82 µM, 1.98 µM and 2.51 µM, respectively. Moreover, the TGI in test [1] was 4.52 µM; in test [2] it was 5.87 µM; in test [3], 4.06 µM; in test [4], 3.67 µM; in test [10] it was 4.24 µM; in test [5], 11.6 µM. The TGI was found to be 3.57 µM in test [6], 6.4 µM in test [8] and 7.38 µM in test [9].

For `CCCCCCCCCCCCCCCCCc1cc(Cl)nc(Cl)n1`, the TGI in [1], in test [2], in [3], in test [4], in test [10] and in test [5] was more than 100 µM each time. Also, the TGI in test [6] and in [8] was more than 100 µM throughout.

`CC(C)(C)n1nc(C2CC2)cc1NC(=O)Nc1ccc(Cl)cc1`: the TGI in test [1], in test [2], in test [3], in [4], in [5] and in [6] was more than 100 µM throughout. In addition, the TGI in test [7], in test [8] and in test [9] was more than 100 µM in each case.

Take `OCC(O)C(O)C(O)c1nn[nH]n1` (configuration not stated): the TGI in test [1], in test [2], in [3], in [10], in [5] and in test [6] was more than 100 µM in each case. Besides, the TGI in [7], in [8] and in test [9] was more than 100 µM in each case.

Consider `COC1=CC(=O)c2c(O)c3c(c(O)c2C1=O)OC1(Oc2c(cc4cc(C)oc(=O)c4c2O)CC1O)C3O` (configuration not stated), for which the TGI in [1], in [2], in [3], in test [10], in test [5] and in [6] was more than 100 µM throughout. For the same molecule, the TGI was more than 100 µM in test [7], more than 100 µM in test [8] and 53.9 µM in test [9].

In the case of `CO[C@H](C(=O)O[C@H]1C(=O)N2CCC3CCC1C32C)c1ccccc1` (some centres not stated), the TGI in test [1], in test [2], in test [3], in test [4], in test [10] and in [5] was more than 100 µM throughout. Also, the TGI in test [6], in [8] and in test [9] was more than 100 µM throughout.

As for `C/C(=N\NC(=O)C[n+]1ccccc1)c1sc(-c2nc(C)c(/C(C)=N/NC(=O)C[n+]3ccccc3)s2)nc1C`, the TGI in test [1], in test [2], in test [3], in test [4], in test [5] and in test [6] was more than 100 µM throughout. The TGI in test [7], in test [8] and in test [9] was more than 100 µM in each case.

With `COc1ccc(-c2cnc(SCC(=O)c3c(C)n(C)n(-c4ccccc4)c3=O)n2-c2ccc(OC)cc2)cc1`, the GI50 in [1] is more than 50 µM; in test [2] it was more than 50 µM; in test [3] it was 35.2 µM; in test [4], more than 50 µM; in test [5], more than 50 µM; in test [6], 46.5 µM. For the same molecule, the GI50 in test [7] was more than 50 µM; in [8], 33.2 µM; in test [9], more than 50 µM. For the same molecule, the TGI in [1], in test [2], in [3], in test [4], in test [5] and in test [6] was more than 50 µM in each case. Further, the TGI in [7], in test [8] and in test [9] was more than 50 µM throughout.

In the case of `O=C1C2c3[nH]c4ccccc4c3C3CCC(c4ccccc4)CC3C2C(=O)N1c1ccccc1` (configuration not stated), the TGI in test [1], in [2], in test [3], in [4], in test [10] and in test [5] was more than 100 µM in each case. Moreover, the TGI in test [6] and in test [8] was more than 100 µM throughout.

Take `Cc1cc(C)nc(NS(=O)(=O)c2ccc(Nc3nc4nc(NCc5ccccc5)nc(-c5ccc(O)cc5)c4c(=O)[nH]3)cc2)n1`: the GI50 in test [1] is 26.7 µM; in [2], 6.39 µM; in test [3] it was 37.5 µM; in [10] it was 17.9 µM; in test [5], 15.5 µM; in test [6], 25.2 µM. In addition, the GI50 is 14.6 µM in [7], 4.84 µM in [8] and 57.2 µM in test [9]. Further, the TGI in test [1] was more than 100 µM; in test [2], more than 100 µM; in test [3], more than 100 µM; in [10], 81.3 µM; in test [5], more than 100 µM; in test [6], more than 100 µM. For the same molecule, the TGI is 61.3 µM in test [7], more than 100 µM in test [8] and more than 100 µM in test [9].
